Assays:
maize pollen [1] = experiment: Pollen tube formation with germination media comprising surfactant; assay type: cell-based; conditions: surfactant at both 0.01% and 0.1% in germination media, pollen stored 1° C. for a day, within two hours
Experimental: Maize pollen was stored in 326C media with 1000 mM Sucrose and 500 mM Betaine at a pH of 9.0. Pollen was stored at 1° C. for a day. After this time period, germination medias comprising surfactant were added in amounts up to five times the volume of storage media. Surfactant conditions tested were 0.1% Tween 20, 0.01% Tween 20, 0.1% Pluronic F68, and 0.01% Pluronic F68 (final concentration). Pollen was observed microscopically prior to replacement of media and two hours after replacement. Pluronic F68, also known as poloxamer 188, is a non-ionic surfactant, a member of a class of polaxamers comprising non-ionic triblock copolymers composed of a central hydrophobic chain of polyoxypropylene flanked by two hydrophilic chains of polyoxyethylene.

maize pollen [2] = experiment: Protective compounds: prevention of pollen bursting on germination media; assay type: cell-based; conditions: loose pollen soaked 20 minutes, compared with fresh pollen without protection
Experimental: In this example, various putative protective compounds were evaluated for their efficacy in preventing pollen from bursting on germination media. Nine different chemical treatments were applied to loose pollen shed from maize plants. Pollen was soaked in chemical solution for 20 minutes and then placed on media to observe the impact on pollen viability and compared with fresh pollen without protection as control.

Compound | Pollen tube formation (maize pollen [1]) | Preventing pollen from bursting on germination media (maize pollen [2])
Tween 20 | lysis but no pollen tube formation | 
C[S+](C)[O-] [5% DMSO, DMSO] |  | did not prevent pollen from bursting

— US20220110318A1, “COMPOSITIONS AND METHODS FOR POLLEN STORAGE AND PRESERVATION” (PIONEER HI-BRED INTERNATIONAL, INC., priority 2018, published 2022)
